From ChEMBL document CHEMBL1201861, “Genomics of Drug Sensitity in Cancer screening data, Wellcome Trust Sanger Institute”

Key:
[1] = tested on: COR-L23; assay: cells; assay type: functional, cell-based; details: Homo sapiens;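 further: cell viability assay measuring how strongly compounds suppress growth of COR-L23 cells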
Description: SANGER: Inhibition of human COR-L23 cell growth in a cell viability assay.

[2] = tested on: CP50-MEL-B; assay: cells; assay type: functional, cell-based; details: Homo sapiens;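 further: growth inhibition of the human cell line, measured with a cell viability read-out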
Description: SANGER: Inhibition of human CP50-MEL-B cell growth in a cell viability assay.

[3] = tested on: ChaGo-K-1; assay: cells; assay type: functional, cell-based; details: Homo sapiens;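 further: growth inhibition of ChaGo-K-1 cells, read out with a cell viability assay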
Description: SANGER: Inhibition of human ChaGo-K-1 cell growth in a cell viability assay.

[4] = tested on: DMS-273; assay: cells; assay type: functional, cell-based; details: Homo sapiens
Description: SANGER: Inhibition of human DMS-273 cell growth in a cell viability assay.

[5] = tested on: EB-3; assay: cells; assay type: functional, cell-based; details: Homo sapiens;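 further: human EB-3 cells, growth inhibition read out via a cell viability assay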
Description: SANGER: Inhibition of human EB-3 cell growth in a cell viability assay.

[6] = tested on: EHEB; assay: cells; assay type: functional, cell-based; details: Homo sapiens;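 further: growth inhibition of human EHEB cells, read out with a cell viability assay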
Description: SANGER: Inhibition of human EHEB cell growth in a cell viability assay.

[7] = tested on: G-401; assay: cells; assay type: functional, cell-based; details: Homo sapiens
Description: SANGER: Inhibition of human G-401 cell growth in a cell viability assay.

[8] = tested on: H4; assay: cells; assay type: functional, cell-based; details: Homo sapiens
Description: SANGER: Inhibition of human H4 cell growth in a cell viability assay.

[9] = tested on: HCC1569; assay: cells; assay type: functional, cell-based; details: Homo sapiens;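 further: growth inhibition of human HCC1569 cells, read out with a cell viability assay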
Description: SANGER: Inhibition of human HCC1569 cell growth in a cell viability assay.

[10] = tested on: HCC1599; assay: cells; assay type: functional, cell-based; details: Homo sapiens;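 further: growth inhibition of HCC1599 cells, read out in a cell viability assay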
Description: SANGER: Inhibition of human HCC1599 cell growth in a cell viability assay.

[11] = tested on: HCC1806; assay: cells; assay type: functional, cell-based; details: Homo sapiens;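 further: growth inhibition of the cancer cell line, determined with a cell viability assay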
Description: SANGER: Inhibition of human HCC1806 cell growth in a cell viability assay.

[12] = tested on: HCT-15; assay: cells; assay type: functional, cell-based; details: Homo sapiens;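 further: cell viability readout, IC50 reflecting suppression of HCT-15 cell growth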
Description: SANGER: Inhibition of human HCT-15 cell growth in a cell viability assay.

[13] = tested on: HEC-1; assay: cells; assay type: functional, cell-based; details: Homo sapiens;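 further: growth inhibition of the cell line, read out with a cell viability assay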
Description: SANGER: Inhibition of human HEC-1 cell growth in a cell viability assay.

[14] = tested on: HSC-3; assay: cells; assay type: functional, cell-based; details: Homo sapiens
Description: SANGER: Inhibition of human HSC-3 cell growth in a cell viability assay.

[15] = tested on: HSC-4; assay: cells; assay type: functional, cell-based; details: Homo sapiens;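 further: growth inhibition of human HSC-4 cells, read out with a cell viability assay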
Description: SANGER: Inhibition of human HSC-4 cell growth in a cell viability assay.

[16] = tested on: KYSE-270; assay: cells; assay type: functional, cell-based; details: Homo sapiens;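 further: cell growth inhibition measured with a viability assay in the human KYSE-270 line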
Description: SANGER: Inhibition of human KYSE-270 cell growth in a cell viability assay.

[17] = tested on: KYSE-520 cell line; assay: cells; assay type: functional, cell-based; details: Homo sapiens;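 further: growth inhibition of human KYSE-520 cells, read out with a viability assay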
Description: SANGER: Inhibition of human KYSE-520 cell growth in a cell viability assay.

[18] = tested on: L-540; assay: cells; assay type: functional, cell-based; details: Homo sapiens;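 further: growth inhibition of the human L-540 cell line, read out with a viability assay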
Description: SANGER: Inhibition of human L-540 cell growth in a cell viability assay.

[19] = tested on: LC4-1; assay: cells; assay type: functional, cell-based; details: Homo sapiens;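 further: growth inhibition of LC4-1 cells, read out with a cell viability assay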
Description: SANGER: Inhibition of human LC4-1 cell growth in a cell viability assay.

[20] = tested on: MDA-MB-175-VII; assay: cells; assay type: functional, cell-based; details: Homo sapiens
[21] = tested on: MDA-MB-453; assay: cells; assay type: functional, cell-based; details: Homo sapiens
Description: SANGER: Inhibition of human MDA-MB-453 cell growth in a cell viability assay.

[22] = tested on: MKN-7; assay: cells; assay type: functional, cell-based; details: Homo sapiens;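 further: growth inhibition of MKN-7 cells, read out with a cell viability assay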
Description: SANGER: Inhibition of human MKN7 cell growth in a cell viability assay.

[23] = tested on: NB12; assay: cells; assay type: functional, cell-based; details: Homo sapiens;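 further: growth inhibition of human NB12 cells, read out by a cell viability assay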
Description: SANGER: Inhibition of human NB12 cell growth in a cell viability assay.

[24] = tested on: NCI-H1417; assay: cells; assay type: functional, cell-based; details: Homo sapiens;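 further: human NCI-H1417 cells, growth inhibition determined with a cell viability readout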
Description: SANGER: Inhibition of human NCI-H1417 cell growth in a cell viability assay.

[25] = tested on: NCI-H1522; assay: cells; assay type: functional, cell-based; details: Homo sapiens;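 further: growth inhibition of NCI-H1522 cells, read out with a cell viability assay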
Description: SANGER: Inhibition of human NCI-H1522 cell growth in a cell viability assay.

[26] = tested on: NCI-H1623; assay: cells; assay type: functional, cell-based; details: Homo sapiens;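 further: cell viability assay used as the read-out for growth inhibition of NCI-H1623 cells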
Description: SANGER: Inhibition of human NCI-H1623 cell growth in a cell viability assay.

[27] = tested on: NCI-H2030; assay: cells; assay type: functional, cell-based; details: Homo sapiens;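 further: growth inhibition of human NCI-H2030 cells, read out by a cell viability assay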
Description: SANGER: Inhibition of human NCI-H2030 cell growth in a cell viability assay.

[28] = tested on: NCI-H322M; assay: cells; assay type: functional, cell-based; details: Homo sapiens;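 further: cell viability assay measuring inhibition of growth of human NCI-H322M cells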
Description: SANGER: Inhibition of human NCI-H322M cell growth in a cell viability assay.

[29] = tested on: NCI-H520; assay: cells; assay type: functional, cell-based; details: Homo sapiens;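 further: growth inhibition of NCI-H520 cells, measured by a cell viability assay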
Description: SANGER: Inhibition of human NCI-H520 cell growth in a cell viability assay.

[30] = tested on: NCI-H524; assay: cells; assay type: functional, cell-based; details: Homo sapiens;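 further: growth inhibition of human NCI-H524 cells, read out through a cell viability assay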
Description: SANGER: Inhibition of human NCI-H524 cell growth in a cell viability assay.

[31] = tested on: NCI-H650; assay: cells; assay type: functional, cell-based; details: Homo sapiens;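 further: growth inhibition of NCI-H650 cells, read out by a viability assay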
Description: SANGER: Inhibition of human NCI-H650 cell growth in a cell viability assay.

[32] = tested on: NCI-H716; assay: cells; assay type: functional, cell-based; details: Homo sapiens;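 further: growth inhibition of human NCI-H716 cells, measured by a cell viability assay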
Description: SANGER: Inhibition of human NCI-H716 cell growth in a cell viability assay.

[33] = tested on: OAW-42; assay: cells; assay type: functional, cell-based; details: Homo sapiens;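 further: growth inhibition of OAW-42 cells, read out with a cell viability assay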
Description: SANGER: Inhibition of human OAW-42 cell growth in a cell viability assay.

[34] = tested on: OPM-2; assay: cells; assay type: functional, cell-based; details: Homo sapiens;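 further: growth of OPM-2 cells measured with a viability assay, IC50 for suppression of proliferation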
Description: SANGER: Inhibition of human OPM-2 cell growth in a cell viability assay.

[35] = tested on: PF-382; assay: cells; assay type: functional, cell-based; details: Homo sapiens
Description: SANGER: Inhibition of human PF-382 cell growth in a cell viability assay.

[36] = tested on: PFSK-1; assay: cells; assay type: functional, cell-based; details: Homo sapiens;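 further: cell viability assay measuring how strongly compounds suppress growth of human PFSK-1 cells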
Description: SANGER: Inhibition of human PFSK-1 cell growth in a cell viability assay.

[37] = tested on: RERF-LC-MS; assay: cells; assay type: functional, cell-based; details: Homo sapiens;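 further: growth inhibition of human RERF-LC-MS cells, read out by a cell viability assay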
Description: SANGER: Inhibition of human RERF-LC-MS cell growth in a cell viability assay.

[38] = tested on: Raji; assay: cells; assay type: functional, cell-based; details: Homo sapiens;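 further: cell viability assay measuring inhibition of Raji cell growth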
Description: SANGER: Inhibition of human Raji cell growth in a cell viability assay.

[39] = tested on: S-117; assay: cells; assay type: functional, cell-based; details: Homo sapiens
Description: SANGER: Inhibition of human S-117 cell growth in a cell viability assay.

[40] = tested on: SBC-5; assay: cells; assay type: functional, cell-based; details: Homo sapiens;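 further: cell viability assay read-out, IC50 is the concentration that inhibits growth of the cells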
Description: SANGER: Inhibition of human SBC-5 cell growth in a cell viability assay.

[41] = tested on: SCC-25; assay: cells; assay type: functional, cell-based; details: Homo sapiens;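 further: growth inhibition of SCC-25 cells, measured with a cell viability assay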
Description: SANGER: Inhibition of human SCC-25 cell growth in a cell viability assay.

[42] = tested on: SCC-3; assay: cells; assay type: functional, cell-based; details: Homo sapiens;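 further: cell viability assay measuring inhibition of SCC-3 cell growth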
Description: SANGER: Inhibition of human SCC-3 cell growth in a cell viability assay.

[43] = tested on: SK-HEP1; assay: cells; assay type: functional, cell-based, SK-HEP-1; details: Homo sapiens;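 further: cell viability readout used to quantify reduction in proliferation of human SK-HEP-1 cells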
Description: SANGER: Inhibition of human SK-HEP-1 cell growth in a cell viability assay.

[44] = tested on: SK-MEL3; assay: cells; assay type: functional, cell-based, SK-MEL-3; details: Homo sapiens;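 further: growth inhibition of human SK-MEL-3 cells, read out with a cell viability assay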
Description: SANGER: Inhibition of human SK-MEL-3 cell growth in a cell viability assay.

[45] = tested on: ST486; assay: SANGER: Inhibition of human ST486 cell growth in a cell viability assay.; assay type: functional, cell-based
[46] = tested on: SW1088; assay: cells; assay type: functional, cell-based; details: Homo sapiens;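 further: growth inhibition of human SW1088 cells, read out by a cell viability assay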
Description: SANGER: Inhibition of human SW1088 cell growth in a cell viability assay.

[47] = tested on: SW1710; assay: cells; assay type: functional, cell-based; details: Homo sapiens;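 further: growth inhibition of SW1710 cells, determined with a cell viability assay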
Description: SANGER: Inhibition of human SW1710 cell growth in a cell viability assay.

[48] = tested on: SW1990; assay: cells; assay type: functional, cell-based; details: Homo sapiens
Description: SANGER: Inhibition of human SW1990 cell growth in a cell viability assay.

[49] = tested on: 647-V; assay: cells; assay type: functional, cell-based; details: Homo sapiens;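 further: growth inhibition of 647-V cells, read out with a cell viability assay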
Description: SANGER: Inhibition of human 647-V cell growth in a cell viability assay.

[50] = tested on: 8305C; assay: cells; assay type: functional, cell-based; details: Homo sapiens
Description: SANGER: Inhibition of human 8305C cell growth in a cell viability assay.

[51] = tested on: A2058; assay: cells; assay type: functional, cell-based; details: Homo sapiens;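 further: reduction of A2058 cell growth, read out with a viability assay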
Description: SANGER: Inhibition of human A2058 cell growth in a cell viability assay.

[52] = tested on: A253 cell line; assay: cells; assay type: functional, cell-based; details: Homo sapiens;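 further: growth inhibition of A253 cells, read out with a cell viability assay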
Description: SANGER: Inhibition of human A253 cell growth in a cell viability assay.

[53] = tested on: BHT-101; assay: cells; assay type: functional, cell-based; details: Homo sapiens
Description: SANGER: Inhibition of human BHT-101 cell growth in a cell viability assay.

[54] = tested on: BL-70; assay: SANGER: Inhibition of human BL-70 cell growth in a cell viability assay.; assay type: functional, cell-based
[55] = tested on: C32; assay: cells; assay type: functional, cell-based; details: Homo sapiens;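 further: cell viability assay, with IC50 reflecting inhibition of C32 cell growth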
Description: SANGER: Inhibition of human C32 cell growth in a cell viability assay.

[56] = tested on: CAL-148; assay: cells; assay type: functional, cell-based; details: Homo sapiens
Description: SANGER: Inhibition of human CAL-148 cell growth in a cell viability assay.

[57] = tested on: TE-441-T; assay: cells; assay type: functional, cell-based; details: Homo sapiens
Description: SANGER: Inhibition of human TE-441-T cell growth in a cell viability assay.

[58] = tested on: U2OS; assay: cells; assay type: functional, cell-based, U-2-OS; details: Homo sapiens;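 further: growth inhibition of human U-2-OS cells, determined with a cell viability assay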
Description: SANGER: Inhibition of human U-2-OS cell growth in a cell viability assay.

[59] = tested on: UMUC3; assay: cells; assay type: functional, cell-based; details: Homo sapiens;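 further: growth inhibition of human UM-UC-3 cells, read out with a cell viability assay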
Description: SANGER: Inhibition of human UM-UC-3 cell growth in a cell viability assay.

[60] = tested on: UMC-11; assay: cells; assay type: functional, cell-based; details: Homo sapiens;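 further: growth inhibition of UMC-11 cells, read out with a cell viability assay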
Description: SANGER: Inhibition of human UMC-11 cell growth in a cell viability assay.

[61] = tested on: YAPC; assay: cells; assay type: functional, cell-based; details: Homo sapiens;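 further: growth inhibition of YAPC cells, measured with a cell viability assay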
Description: SANGER: Inhibition of human YAPC cell growth in a cell viability assay.

[62] = tested on: YT; assay: cells; assay type: functional, cell-based; details: Homo sapiens
Description: SANGER: Inhibition of human YT cell growth in a cell viability assay.

[63] = tested on: CESS; assay: SANGER: Inhibition of human CESS cell growth in a cell viability assay.; assay type: functional, cell-based
[64] = tested on: CHP-212; assay: cells; assay type: functional, cell-based; details: Homo sapiens
Description: SANGER: Inhibition of human CHP-212 cell growth in a cell viability assay.

Which results are given for `O=c1[nH]c2ccccc2n1C1CCN(Cc2ccc(-c3nc4cc5[nH]cnc5cc4nc3-c3ccccc3)cc2)CC1`?
IC50 [1]: > 2560 nM; IC50 [2]: > 2560 nM; IC50 [3]: > 2560 nM; IC50 [4]: > 2560 nM; IC50 [5]: > 2560 nM; IC50 [6]: > 2560 nM; IC50 [7]: > 2560 nM; IC50 [8]: > 2560 nM; IC50 [9]: > 2560 nM; IC50 [10]: > 2560 nM; IC50 [11]: > 2560 nM; IC50 [12]: > 2560 nM; IC50 [13]: > 2560 nM; IC50 [14]: > 2560 nM; IC50 [15]: > 2560 nM; IC50 [16]: > 2560 nM; IC50 [17]: > 2560 nM; IC50 [18]: > 2560 nM; IC50 [19]: > 2560 nM; IC50 [20]: > 2560 nM; IC50 [21]: > 2560 nM; IC50 [22]: > 2560 nM; IC50 [23]: > 2560 nM; IC50 [24]: > 2560 nM; IC50 [25]: > 2560 nM; IC50 [26]: > 2560 nM; IC50 [27]: 1940 nM; IC50 [28]: > 2560 nM; IC50 [29]: 1130 nM; IC50 [30]: > 2560 nM; IC50 [31]: > 2560 nM; IC50 [32]: > 2560 nM; IC50 [33]: > 2560 nM; IC50 [34]: > 2560 nM; IC50 [35]: > 2560 nM; IC50 [36]: > 2560 nM; IC50 [37]: > 2560 nM; IC50 [38]: > 2560 nM; IC50 [39]: > 2560 nM; IC50 [40]: > 2560 nM; IC50 [41]: > 2560 nM; IC50 [42]: > 2560 nM; IC50 [43]: > 2560 nM; IC50 [44]: > 2560 nM; IC50 [45]: > 2560 nM; IC50 [46]: > 2560 nM; IC50 [47]: 1390 nM; IC50 [48]: > 2560 nM; IC50 [49]: > 2560 nM; IC50 [50]: > 2560 nM; IC50 [51]: > 2560 nM; IC50 [52]: > 2560 nM; IC50 [53]: > 2560 nM; IC50 [54]: > 2560 nM; IC50 [55]: > 2560 nM; IC50 [56]: > 2560 nM; IC50 [57]: > 2560 nM; IC50 [58]: > 2560 nM; IC50 [59]: > 2560 nM; IC50 [60]: > 2560 nM; IC50 [61]: > 2560 nM; IC50 [62]: > 2560 nM; IC50 [63]: > 2560 nM; IC50 [64]: > 2560 nM

What does the source list for `CC(C)=CC[C@@H](O)C1=CC(=O)c2c(O)ccc(O)c2C1=O` [SHIKONIN]?
IC50 [1]: 301 nM; IC50 [2]: 1430 nM; IC50 [3]: 657 nM; IC50 [4]: 396 nM; IC50 [5]: 1140 nM; IC50 [6]: 2090 nM; IC50 [7]: 235 nM; IC50 [8]: 284 nM; IC50 [9]: 810 nM; IC50 [10]: 388 nM; IC50 [11]: 1270 nM; IC50 [12]: 268 nM; IC50 [13]: 1130 nM; IC50 [14]: 337 nM; IC50 [15]: 2120 nM; IC50 [16]: 217 nM; IC50 [17]: 598 nM; IC50 [18]: 4900 nM; IC50 [19]: 360 nM; IC50 [20]: 2050 nM; IC50 [21]: 2520 nM; IC50 [22]: 2210 nM; IC50 [23]: 666 nM; IC50 [24]: 816 nM; IC50 [25]: 519 nM; IC50 [26]: 2730 nM; IC50 [27]: 563 nM; IC50 [28]: > 16000 nM; IC50 [29]: 1350 nM; IC50 [30]: > 16000 nM; IC50 [31]: 665 nM; IC50 [32]: > 16000 nM; IC50 [33]: 578 nM; IC50 [34]: 343 nM; IC50 [35]: 790 nM; IC50 [36]: > 16000 nM; IC50 [37]: 4190 nM; IC50 [38]: 631 nM; IC50 [39]: 387 nM; IC50 [40]: 215 nM; IC50 [41]: 383 nM; IC50 [42]: 1000 nM; IC50 [43]: 548 nM; IC50 [44]: 2640 nM; IC50 [45]: < 62.5 nM; IC50 [46]: 700 nM; IC50 [47]: < 62.5 nM; IC50 [48]: 1620 nM; IC50 [49]: 359 nM; IC50 [50]: 305 nM; IC50 [51]: 919 nM; IC50 [52]: < 62.5 nM; IC50 [53]: 1250 nM; IC50 [54]: 278 nM; IC50 [55]: 2680 nM; IC50 [56]: 677 nM; IC50 [57]: < 62.5 nM; IC50 [58]: > 16000 nM; IC50 [59]: 967 nM; IC50 [60]: > 16000 nM; IC50 [61]: > 16000 nM; IC50 [62]: 384 nM; IC50 [63]: 776 nM; IC50 [64]: 1100 nM
